Target: human serum albumin (HSA) (Homo sapiens, UniProt P02768)
Test: high-performance affinity chromatography, frontal analysis
Type: binding

Sequence of human serum albumin (HSA) (P02768 25-609): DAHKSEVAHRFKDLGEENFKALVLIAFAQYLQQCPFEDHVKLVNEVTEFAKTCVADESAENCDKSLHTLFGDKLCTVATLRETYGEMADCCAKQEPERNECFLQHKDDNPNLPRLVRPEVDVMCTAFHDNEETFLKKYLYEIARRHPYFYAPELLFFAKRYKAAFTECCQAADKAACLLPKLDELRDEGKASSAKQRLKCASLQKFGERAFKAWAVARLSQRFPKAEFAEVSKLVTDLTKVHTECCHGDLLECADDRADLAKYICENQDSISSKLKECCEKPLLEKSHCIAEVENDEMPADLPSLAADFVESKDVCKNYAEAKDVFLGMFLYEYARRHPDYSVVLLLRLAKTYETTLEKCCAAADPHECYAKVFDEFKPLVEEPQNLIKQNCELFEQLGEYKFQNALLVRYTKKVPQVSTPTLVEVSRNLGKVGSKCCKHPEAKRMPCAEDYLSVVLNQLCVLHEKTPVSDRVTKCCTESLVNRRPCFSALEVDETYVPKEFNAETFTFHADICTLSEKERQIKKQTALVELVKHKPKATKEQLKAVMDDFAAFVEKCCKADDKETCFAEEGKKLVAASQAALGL

- Kd: 21.3 µM
SMILES: CCN(CC)CC(=O)Nc1c(C)cccc1C [lidocaine]

Reference: paper PMC2837466 (Journal of chromatography. B, Analytical technologies in …, 2010)
